Assay results from patent US20080220083A1, “Pharmaceutical Agent Comprising Blood Components <10 Kda And Their Use For Prophylaxis And Treatment Of Defects Of The Immune System” (priority 2004, published 2008).

Test system: guinea pig T lymphocytes
Experiment: rosette test on guinea pig T lymphocytes in immunosuppressed guinea pigs
Type: in vivo
Experimental: The composition of the invention was also tested in vivo in various animal systems. Using the rosette test on guinea pig T lymphocytes, the state of cellular immunity under the influence of the composition according to the invention in combination with Oxoplatin, Campto, Taxol and Eloxatin was investigated. In each test, the improvement of the T lymphocyte state in immunosuppressed guinea pigs after administration of the composition according to the invention was tested. Prior to testing, the level of T lymphocytes in the guinea pigs was determined using the rosette test, and subsequently, the decrease in the amount of T lymphocytes caused by the immunosuppressant Azathioprin was determined. A second determination of the T lymphocytes was made seven days after application of Azathioprin. This was followed by subcutaneous application of the composition of the invention into the laboratory animals. The last determination of the T lymphocyte count in the guinea pigs was made 14 to 19 days after application of the composition according to the invention.

| Structure (SMILES) | drop in production of rosettes following application of the cytostatic agent (guinea pigs, rosette test) | drop in production of rosettes following application of the cytostatic agent (guinea pig, in vivo) |
| --- | --- | --- |
| CCc1c2c(nc3ccc(OC(=O)N4CCC(N5CCCCC5)CC4)cc13)-c1cc3c(c(=O)n1C2)COC(=O)[C@]3(O)CC [Campto] | 23% | – |
| O=C1[O][Pt]2([NH][C@@H]3CCCC[C@H]3[NH]2)[O]C1=O [Eloxatin] | – | 22% |
| N.N.[Cl-].[Cl-].[OH-].[OH-].[Pt+4] [Oxoplatin] | – | about 30% |
| CC(=O)O[C@H]1C(=O)[C@@]2(C)[C@H]([C@H](OC(=O)c3ccccc3)[C@]3(O)C[C@H](OC(=O)[C@H](O)[C@@H](NC(=O)c4ccccc4)c4ccccc4)C(C)=C1C3(C)C)[C@]1(OC(C)=O)CO[C@@H]1C[C@@H]2O [Taxol] | – | 16% |
